Results published in US20080015138A1, “Metal binding compounds, metal binding compositions, and their uses” (AFFINERGY, INC., priority 2006, published 2008).
Blank lines part the entries; values can stand above or below the substance they belong to. Square brackets hold non-standard residues; d marks the D form. Ends that are not written are not given here.

What was measured:
[1] = Peptide binding assay on titanium beads (streptavidin-AP detection, binding curve EC50)
Method: (§1) Relative binding strengths (affinities) of the peptides to metal, also used as a measure of binding specificity, were determined by testing serial dilutions of the peptide for binding to a target substrate comprising metal, as represented by titanium or steel. Plotting the absorbance observed across the concentration range for each peptide sequence yielded a binding curve of the peptides to its target substrate from which can be determined an EC50 (e.g., the concentration of peptide that gives 50% of the maximum signal in the binding curve is used as an estimate of the affinity of the peptide for the target). Preferred are peptides that bind to the selected target substrate (in this case, metal) with binding specificity, preferably with an EC50 of less than or equal to about 1 μM, and more preferably, in the nanomolar range (e.g., <0.1 μM). […] A typical binding assay for titanium (note, a different substrate may be substituted for titanium in the assay) may be perofrmed according to the following procedure.
(§2) Briefly, 5/32-inch diameter Grade 200 titanium beads were washed by sonication in acetone for 15 minutes, and the beads were allowed to dry. One bead was added to each well of a 96-well polypropylene plate. Two hundred fifty (250) μL of 1% BSA in PBS was added to each well of the plate. The surface of the wells was blocked by incubation for 1 hour at 20° C. with shaking at 500 rpm. The plate was washed three times with 250 μL of buffer-T per well. A 1:3 dilution series of each of the peptides was prepared using PBS as a diluent, starting at a peptide concentration of 20 μM, and going down to 0.0001 μM. A 200 μL sample of each dilution was added to wells of the plate. The plate was incubated for 1 hour at 20° C. with shaking at 500 rpm. The beads were washed three times with 250 μL of buffer-T per well. Two hundred (200) μL of streptavidin-alkaline phosphatase (“streptavidin AP”) reagent, at a dilution of 1:2000 in buffer+1% BSA, was added to each well. The plate was incubated for 30 minutes at room temperature. The beads were washed three times with 250 μL of buffer-T per well. Two hundred (200) μL of color development reagent (PNPP, p-nitrophenol phosphate) was added to each well. After color had developed (10 minutes), the samples were transferred to a clear 96-well plate and the absorbance at 405 nm determined. A binding curve was generated by plotting the absorbance at 405 nm against the peptide concentration (μM).

[2] = Peptide binding assay on zirconium metal alloy; conditions: Table 6
Method: as §1, §2
(§3) In this embodiment, illustrated are additional characterizations of the binding specificities of examples of metal binding domains, and peptides containing the metal binding domains, according to the present invention to various substrates, such as metal (as illustrated by stainless steel, zirconium metal alloy […]) versus binding to a polymer (as illustrated by polystyrene). Using the methods illustrated in Example 2, binding specificities for the various substrates were determined; with the results illustrated in Table 6 (Note: “none” means any binding detected was very low, and not above background binding (such as by a control peptide with no binding specificity for metal) in the binding assay; and thus, a binding curve for calculation of an EC50 could not be generated).

[3] = Peptide binding assay on stainless steel; conditions: for binding to stainless steel (in words): biotinylated peptides
Method: as §1, §2, §3

[4] = Peptide binding assay on polymer (polystyrene); conditions: Table 6, polymer illustrated by polystyrene
Method: as §1, §2, §3

[5] = Peptide binding assay on glass; conditions: Table 6
Method: as §1, §2, §3

[6] = Table 3, substituted peptides labeled with biotin, binding to titanium, read-out: EC50
[7] = Table 4, second-generation peptides, biotinylated at C-terminal lysine, binding to titanium, read-out: EC50
[8] = Table 6, read-out: EC50 (μM) stainless steel
[9] = Table 5, spacing between triplets, biotinylated peptides, binding to titanium, read-out: EC50

Substance: SGGGPVTPRFFVVESK [SEQ ID NO: 64]
EC50 [1, 6]: > 100000 nM

Substance: SHKHGGGGRFFVVESK [SEQ ID NO: 61]
EC50 [1, 6]: 3000 nM

Substance: SHKHGGHKHGGHKHGSSGK [SEQ ID NO: 72]
EC50 [2]: < 0.1 µM
EC50 [3, 8]: < 0.1 µM
EC50 (μM) Polymer [4]: None
EC50 [1, 7]: 35 nM
EC50 [5]: < 0.05 µM

Substance: SHKHPVTPGFFVVESK [SEQ ID NO: 63]
EC50 [1, 6]: > 50000 nM

Substance: SHKHPVTPRFFVVESK [SEQ ID NO: 59, Parent]
EC50 [1, 6]: 4000 nM

Substance: SHKHPVTPRFFVVGSK [SEQ ID NO: 68]
EC50 [1, 6]: 600 nM

Substance: SHKHPVTPRFFVVKSK [SEQ ID NO: 66]
EC50 [1, 6]: 50 nM

Substance: SHKHPVTPRFFVVNSK [SEQ ID NO: 69]
EC50 [1, 6]: 800 nM

Substance: SHKHPVTPRFFVVVSK [SEQ ID NO: 67]
EC50 [1, 6]: 200 nM

Substance: SHKHPVTPRFFVVYSK [SEQ ID NO: 65]
EC50 [1, 6]: 50 nM

Substance: SHKHPVTPRGGGGESK [SEQ ID NO: 62]
EC50 [1, 6]: 3000 nM

Substance: SHKHPVTPRGGVVESK [SEQ ID NO: 60]
EC50 [1, 6]: 2000 nM

Substance: SKHKGGHKHGSSGK [SEQ ID NO: 73]
EC50 [2]: < 0.5 µM
EC50 [3, 8]: < 0.5 µM
EC50 [4]: > 20 µM
EC50 [1, 7]: 45 nM
EC50 [5]: < 0.5 µM

Substance: SKHKGGKHKGSSGK [SEQ ID NO: 71]
EC50 [2]: < 0.1 µM
EC50 [3, 8]: < 0.5 µM
EC50 [4]: > 20 µM
EC50 [1, 7]: 26 nM
EC50 [1, 9]: 26 nM
EC50 [5]: < 0.5 µM

Substance: SKKHGGKKHGSSGK [SEQ ID NO: 70]
EC50 [2]: < 0.1 µM
EC50 [3, 8]: < 0.1 µM
EC50 [4]: > 20 µM
EC50 [1, 7]: 13 nM
EC50 [5]: < 0.1 µM

More lines, now with the values ahead:

EC50 [1, 7]: 4000 nM
binding to titanium (in words) ([1]; biotinylated peptides): comparably poorer binding affinity
Substance: SHGHGGHGHGSSGK [SEQ ID NO: 80]

EC50 [1, 7]: 500 nM
Substance: SHHKGGHHKGSSGK- (not fully specified; printed as SHHKGGHHKGSSGK-; also: name ends with '-': unspecified C-terminal conjugate) [SEQ ID NO: 78]

EC50 [1, 7]: 150 nM
Substance: SHKHGGGGHKHGSSGK [SEQ ID NO: 76]

EC50 [2]: < 1 µM
EC50 [3, 8]: < 1 µM
EC50 [4]: > 20 µM
EC50 [1, 7]: 200 nM
EC50 [5]: < 1 µM
Substance: SHKHGGHKHGSSGK [SEQ ID NO: 77]

EC50 [2]: < 0.1 µM
EC50 [3, 8]: < 0.5 µM
EC50 [4]: > 20 µM
EC50 [1, 7]: 60 nM
EC50 [5]: < 0.5 µM
Substance: SHKHGGKHKGSSGK [SEQ ID NO: 74]

EC50 [1, 9]: 70 nM
Substance: SKHKGGGGGKHKGSSGK [SEQ ID NO: 84]

EC50 [2]: < 0.1 µM
EC50 [3, 8]: < 0.5 µM
EC50 [4]: > 20 µM
EC50 [1, 7]: 110 nM
EC50 [5]: < 0.1 µM
Substance: SKHKGGGGKHKGSSGK [SEQ ID NO: 75]

EC50 [1, 9]: 75 nM
Substance: SKHKGGGKHKGSSGK [SEQ ID NO: 83]

EC50 [2]: < 0.05 µM
EC50 [3, 8]: < 0.05 µM
EC50 [4]: > 20 µM
EC50 [1, 7]: 25 nM
EC50 ([1]; Table 7, peptide monomer versus branched polymers, binding to titanium, read-out: EC50): 25 nM
EC50 [5]: < 0.05 µM
Substance: SKHKGGKHKGGKHKGSSGK [SEQ ID NO: 79]

EC50 [1, 9]: 60 nM
Substance: SKHKGKHKGSSGK [SEQ ID NO: 82]

EC50 [1, 9]: 60 nM
Substance: SKHKKHKGSSGK [SEQ ID NO: 81]

binding to stainless steel (in words) [3]: showed binding
binding to titanium (in words) ([1]; biotinylated peptides): showed binding
Substance: ssCDQNDIFYTSKKSHKSHCsr ([code s][code s]CDQNDIFYTSKKSHKSHC[code s][code r]; not fully specified; printed as ssCDQNDIFYTSKKSHKSHCsr; cysteine pairing not given here) [SEQ ID NO: 49]

binding to stainless steel (in words) ([3]; listed as 47): showed binding
binding to stainless steel (in words) ([3]; listed as SEQ ID NO:47): strongest binding
EC50 ([3]; biotinylated phage-derived peptide, text of Example 2, read-out: EC50 on stainless steel): ~1 µM
binding to titanium (in words) ([1]; biotinylated peptides, listed as 47): showed binding
binding to titanium (in words) ([1]; biotinylated peptides, listed as SEQ ID NO:47): strongest binding
EC50 ([1]; biotinylated phage-derived peptide, text of Example 2, read-out: EC50 on titanium): ~800 nM
Substance: ssCNCYVTPNLLKHKCYKICsr ([code s][code s]CNCYVTPNLLKHKCYKIC[code s][code r]; not fully specified; printed as ssCNCYVTPNLLKHKCYKICsr; cysteine pairing not given here) [SEQ ID NO: 47]

binding to stainless steel (in words) [3]: showed binding
binding to titanium (in words) ([1]; biotinylated peptides): showed binding
Substance: ssCSHNHHKLTAKHQVAHKCsr ([code s][code s]CSHNHHKLTAKHQVAHKC[code s][code r]; not fully specified; printed as ssCSHNHHKLTAKHQVAHKCsr; cysteine pairing not given here) [SEQ ID NO: 48]

binding to stainless steel (in words) [3]: showed binding
binding to titanium (in words) ([1]; biotinylated peptides): showed binding
Substance: ssSDKCHKHWYCYESKYGGSsr ([code s][code s]SDKCHKHWYCYESKYGGS[code s][code r]; cysteine pairing not given here; also: biotinylated (site not given here)) [SEQ ID NO: 51]
